In US6087509A, “1-Imidazolidinyl-phenyls” (Hoechst Marion Roussel, priority 1995, dated 2000):

Experiments:
[1] = system: costovertebral gland of the hamster; assay: Reducing effect on the costo-vertebral gland of the hamster (topical antiandrogen activity); format: in vivo; conditions: topical on right-hand C.V.G., 3 weeks (14 administrations), male hamsters, reduction in surface area
Method: 2) Determination of the Reducing Effect on the Costo-vertebral Gland of the Hamster
The local activity (topical) of an antiandrogen is determined by the reduction which it brings about in the surface area of the costovertebral gland of the hamster (hereafter C.V.G.), an androgen-dependent organ situated on the flanks of the animal.
The animals are male hamsters weighing about 140 g, 14 weeks old and originating from the Charles River breed (USA), they are subjected to a long photoperiod (16 hours of light, 8 hours of darkness). The animals are treated every day, except for the weekend, for 3 weeks (14 administrations). The product to be tested is applied, by topical route, on the right-hand C.V.G., the left-hand one serving as the control. The surface of the gland has been shaved beforehand. The animals are sacrificed by bleeding the carotid artery 24 hours after the last treatment. The C.V.G.'s are removed, measured and weighed. The local activity of a product is determined by the % of reduction in the surface area of the C.V.G. which it induces in comparison with the 1st day of the experiment and compared to the animals treated with solvent only.

[2] = system: prostate in an intact male rat; assay: Reducing effect of the weight of the prostate in an intact male rat (systemic antiandrogen activity); format: in vivo; conditions: day 0 to 4 and day 7 to 10, intact male Sprague Dawley rats, compared to solvent only
Method: 3) Determination of the Reducing Effect of the Weight of the Prostate in an Intact Male Rat
The systemic activity of an antiandrogen is determined by the reduction in the weight of the prostate which it brings about in an intact animal.
The animals used are male rats of the Sprague Dawley strain weighing about 200 g, 7 weeks old, originating from the Iffa Credo breed (France). The experiment is carried out over two weeks, except for the weekend.
The product can be administered by oral, sub-cutaneous or percutaneous route.
The solvents used are then: by oral route: 0.5% aqueous solution of methylcellulose under a volume of 5 ml/kg, by sub-cutaneous route: wheatgerm oil in 10% ethanol under a volume of 0.2 ml/kg, and by percutaneous route: ethanol under a volume of 50 ul on previously-shaved skin.
The treatment is carried out from day 0 to day 4 then (after the weekend) from day 7 to day 10. The animals are sacrificed the day after the last treatment by bleeding the carotid artery, the prostates are removed and fixed in demineralized water containing 10% formol for 72 hours. They are then dissected and weighed.

androgen receptor = target: T1, androgen receptor (Rattus norvegicus, UniProt P15207); assay: Affinity for the androgen receptor (relative bond affinity, tritiated testosterone displacement in rat prostate cytosol); format: binding
T1 construct: from tissue; host or cells: prostate cytosol of castrated male Sprague Dawley rats
T1 sequence (P15207 1-902): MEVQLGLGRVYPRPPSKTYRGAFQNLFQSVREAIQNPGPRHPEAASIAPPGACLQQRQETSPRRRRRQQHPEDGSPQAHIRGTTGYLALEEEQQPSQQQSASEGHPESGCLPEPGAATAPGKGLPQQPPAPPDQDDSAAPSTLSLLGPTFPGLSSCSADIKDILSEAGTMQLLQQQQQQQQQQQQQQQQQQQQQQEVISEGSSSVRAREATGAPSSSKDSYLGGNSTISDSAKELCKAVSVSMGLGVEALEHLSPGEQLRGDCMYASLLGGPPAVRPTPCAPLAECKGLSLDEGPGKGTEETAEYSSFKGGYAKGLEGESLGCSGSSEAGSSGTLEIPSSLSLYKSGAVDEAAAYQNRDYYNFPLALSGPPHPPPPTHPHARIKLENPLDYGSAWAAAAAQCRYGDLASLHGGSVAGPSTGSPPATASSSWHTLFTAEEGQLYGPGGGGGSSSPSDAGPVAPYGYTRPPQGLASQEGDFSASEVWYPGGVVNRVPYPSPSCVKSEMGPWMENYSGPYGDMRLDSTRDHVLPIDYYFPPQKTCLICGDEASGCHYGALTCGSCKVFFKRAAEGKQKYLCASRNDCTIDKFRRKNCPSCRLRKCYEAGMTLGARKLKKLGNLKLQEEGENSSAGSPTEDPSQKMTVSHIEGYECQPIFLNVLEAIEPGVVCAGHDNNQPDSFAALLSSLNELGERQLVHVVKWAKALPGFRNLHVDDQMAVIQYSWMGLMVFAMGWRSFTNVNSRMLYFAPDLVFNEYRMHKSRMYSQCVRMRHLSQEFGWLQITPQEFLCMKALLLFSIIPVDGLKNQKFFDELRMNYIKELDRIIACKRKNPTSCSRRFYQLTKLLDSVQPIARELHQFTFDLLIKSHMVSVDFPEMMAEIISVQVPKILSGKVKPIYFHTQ
Method: The straight line of the equation I50 =(B/Tmax+B/Tmin)/2 is determined.

| Structure (SMILES) | % CVG reduction with 3 μg/jour [1] [%] | % reduction in the prostate weight with 3 mg/kg P.O. [2] [%] | RBA: Incubation 24 hours (androgen receptor) |
| --- | --- | --- | --- |
| N#Cc1ccc(N2C(=O)N(CCCCO)C3(CCCCC3)C2=O)cc1C(F)(F)F [Example 9, 4-[2,4-dioxo-1-(4-hydroxybutyl)-1,3-diazaspiro-[4.5]decan-3-yl]-2-(trifluoromethyl)-benzonitrile] | -25 | – | – |
| CC1(C)C(=O)N(c2ccc(C#N)c(C(F)(F)F)c2)C(=O)N1CC#CCO [Example 8, 4-(3-(4-hydroxy-2-butyn-1-yl)-4,4-dimethyl-2,5-dione-1-imidazolidinyl)-2-(trifluoromethyl)-benzonitrile] | – | -35 | – |
| N#Cc1ccc(N2C(=O)N(CCF)C(CF)(CF)C2=O)cc1C(F)(F)F [Example 1, 4-(4,4-bis(fluoromethyl)-2,5-dioxo-3-(2-fluoroethyl)-1-imidazolidinyl)-2-(trifluoromethyl)-benzonitrile] | -32 | -27 | 42 |
| CCN1C(=O)N(c2ccc(C#N)c(C(F)(F)F)c2)C(=O)C1(CF)CF [Example 3, 4-(2,5-dioxo-4,4-bis(fluoromethyl)-3-ethyl-1-imidazolidinyl)-2-(trifluoromethyl)-benzonitrile] | -33 | -20 | 43 |
